The results in this text go back to ChEMBL document CHEMBL3817753, “Neurosteroid-like Inhibitors of N-Methyl-d-aspartate Receptor: Substituted 2-Sulfates and 2-Hemisuccinates of Perhydrophenanthrene” (J Med Chem, 2016).

SMILES strings stand for the structures.

Experiment [1] deals with Glutamate NMDA receptor; Grin1/Grin2b (Rattus norvegicus, UniProt P35439+Q00960). The experiment in a line: Inhibition of recombinant rat GluN1a/GluN2B co-expressed in HEK293 cells assessed as suppression of glutamate-induced current by patch-clamp method. It is filed as cell-based. For orientation: Patch clamp records ionic current or voltage across a cell membrane.
Chain of Glutamate NMDA receptor; Grin1/Grin2b (Q00960 whole entry, other chains not shown): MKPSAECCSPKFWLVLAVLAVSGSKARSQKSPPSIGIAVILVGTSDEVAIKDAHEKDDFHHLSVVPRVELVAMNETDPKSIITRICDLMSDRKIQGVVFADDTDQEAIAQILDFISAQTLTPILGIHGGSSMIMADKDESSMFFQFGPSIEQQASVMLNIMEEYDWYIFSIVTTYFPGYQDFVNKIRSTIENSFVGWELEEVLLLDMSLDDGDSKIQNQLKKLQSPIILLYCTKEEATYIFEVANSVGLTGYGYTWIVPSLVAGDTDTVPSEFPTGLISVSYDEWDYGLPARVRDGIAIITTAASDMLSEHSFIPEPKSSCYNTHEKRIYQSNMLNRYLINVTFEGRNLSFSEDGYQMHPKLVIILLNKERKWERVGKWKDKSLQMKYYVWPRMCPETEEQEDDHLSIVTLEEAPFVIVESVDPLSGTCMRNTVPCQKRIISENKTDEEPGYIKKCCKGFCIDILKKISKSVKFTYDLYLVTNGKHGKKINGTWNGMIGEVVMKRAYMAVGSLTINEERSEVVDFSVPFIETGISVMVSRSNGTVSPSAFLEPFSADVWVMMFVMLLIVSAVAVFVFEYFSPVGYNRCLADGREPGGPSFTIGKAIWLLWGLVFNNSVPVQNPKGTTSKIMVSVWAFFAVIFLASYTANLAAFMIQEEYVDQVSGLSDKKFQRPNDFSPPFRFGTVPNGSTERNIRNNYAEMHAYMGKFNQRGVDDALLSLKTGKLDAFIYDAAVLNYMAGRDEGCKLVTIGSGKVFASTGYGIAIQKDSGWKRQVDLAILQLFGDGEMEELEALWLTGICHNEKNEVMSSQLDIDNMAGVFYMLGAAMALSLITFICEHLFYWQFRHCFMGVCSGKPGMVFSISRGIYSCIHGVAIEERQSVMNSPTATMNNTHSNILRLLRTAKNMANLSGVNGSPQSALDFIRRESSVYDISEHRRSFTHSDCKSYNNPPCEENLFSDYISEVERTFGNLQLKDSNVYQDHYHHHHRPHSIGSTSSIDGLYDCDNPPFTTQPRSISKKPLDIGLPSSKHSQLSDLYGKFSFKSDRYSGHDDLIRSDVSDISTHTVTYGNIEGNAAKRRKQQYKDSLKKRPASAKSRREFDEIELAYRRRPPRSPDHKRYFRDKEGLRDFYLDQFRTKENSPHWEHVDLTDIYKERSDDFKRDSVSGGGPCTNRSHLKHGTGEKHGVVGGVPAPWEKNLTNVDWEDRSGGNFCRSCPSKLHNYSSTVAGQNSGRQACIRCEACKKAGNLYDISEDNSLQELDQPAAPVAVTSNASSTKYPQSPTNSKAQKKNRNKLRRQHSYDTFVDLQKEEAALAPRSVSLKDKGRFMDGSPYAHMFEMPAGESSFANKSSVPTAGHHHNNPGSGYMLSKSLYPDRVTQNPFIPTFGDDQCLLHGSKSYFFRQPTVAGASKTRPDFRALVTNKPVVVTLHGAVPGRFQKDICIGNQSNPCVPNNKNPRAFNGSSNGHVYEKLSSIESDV
The target of experiment [2] is Ionotropic glutamate receptor NMDA 1/2D (Rattus norvegicus, UniProt P35439+Q62645). Kind of experiment: Inhibition of recombinant rat GluN1a/GluN2D co-expressed in HEK293 cells assessed as suppression of glutamate-induced current by patch-clamp method. The experiment is classed as cell-based.
Chain of Ionotropic glutamate receptor NMDA 1/2D (Q62645 whole entry, other chains not shown): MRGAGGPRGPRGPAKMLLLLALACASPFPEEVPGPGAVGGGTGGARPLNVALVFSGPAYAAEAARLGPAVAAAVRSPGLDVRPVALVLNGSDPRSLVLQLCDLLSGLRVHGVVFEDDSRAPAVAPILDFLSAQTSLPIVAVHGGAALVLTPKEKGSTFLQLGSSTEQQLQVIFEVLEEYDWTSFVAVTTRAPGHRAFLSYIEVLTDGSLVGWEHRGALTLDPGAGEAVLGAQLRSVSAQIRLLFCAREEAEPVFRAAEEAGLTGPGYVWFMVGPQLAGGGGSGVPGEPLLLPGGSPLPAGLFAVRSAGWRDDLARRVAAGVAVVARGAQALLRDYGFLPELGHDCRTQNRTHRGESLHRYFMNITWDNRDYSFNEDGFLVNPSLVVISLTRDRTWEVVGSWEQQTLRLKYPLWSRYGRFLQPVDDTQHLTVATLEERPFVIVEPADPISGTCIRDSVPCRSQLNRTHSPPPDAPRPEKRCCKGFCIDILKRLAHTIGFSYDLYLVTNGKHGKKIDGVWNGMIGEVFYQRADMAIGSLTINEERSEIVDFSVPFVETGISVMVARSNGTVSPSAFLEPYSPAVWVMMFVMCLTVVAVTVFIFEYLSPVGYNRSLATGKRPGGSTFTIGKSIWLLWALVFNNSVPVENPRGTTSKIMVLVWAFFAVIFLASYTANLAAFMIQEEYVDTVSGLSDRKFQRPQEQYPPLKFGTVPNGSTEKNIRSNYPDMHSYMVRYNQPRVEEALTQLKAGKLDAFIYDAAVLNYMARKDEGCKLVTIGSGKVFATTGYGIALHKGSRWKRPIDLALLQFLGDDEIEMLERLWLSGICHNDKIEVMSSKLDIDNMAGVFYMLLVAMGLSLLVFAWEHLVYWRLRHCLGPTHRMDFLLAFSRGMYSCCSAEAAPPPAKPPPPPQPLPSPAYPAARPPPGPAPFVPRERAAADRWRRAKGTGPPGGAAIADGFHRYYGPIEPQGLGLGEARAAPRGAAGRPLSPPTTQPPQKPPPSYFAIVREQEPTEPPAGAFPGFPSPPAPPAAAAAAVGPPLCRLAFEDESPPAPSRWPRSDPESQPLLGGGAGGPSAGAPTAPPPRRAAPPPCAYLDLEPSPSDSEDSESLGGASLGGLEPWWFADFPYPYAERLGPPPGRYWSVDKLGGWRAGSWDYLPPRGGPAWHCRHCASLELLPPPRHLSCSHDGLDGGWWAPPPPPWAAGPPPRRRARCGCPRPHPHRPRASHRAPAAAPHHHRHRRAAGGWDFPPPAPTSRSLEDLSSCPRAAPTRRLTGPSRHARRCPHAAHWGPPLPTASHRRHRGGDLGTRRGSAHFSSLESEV
A short description of experiment [3]: Inhibition of NMDAR in rat hippocampal neurons assessed as suppression of NMDA-induced current by whole-cell patch-clamp method. The settings on record: Hippocampus. The experiment is classed as tissue-based.
The nature of experiment [4]: Inhibition of AMPAR in rat hippocampal neurons assessed as suppression of AMPA-induced current by whole-cell patch-clamp method. It is filed as tissue-based. To be noted: Hippocampus.
Experiment [5] in a line: Inhibition of GABAR in rat hippocampal neurons assessed as suppression of GABA-induced current by whole-cell patch-clamp method. The experiment is classed as tissue-based. The settings on record: Hippocampus.
Experiment [6] concerns the target Glutamate NMDA receptor; Grin1/Grin2c (Rattus norvegicus, UniProt P35439+Q00961). Kind of experiment: Inhibition of recombinant rat GluN1a/GluN2C co-expressed in HEK293 cells assessed as suppression of glutamate-induced current by patch-clamp method. It is filed as cell-based.
The target in experiment [7] is Glutamate NMDA receptor; Grin1/Grin2a (Rattus norvegicus, UniProt P35439+Q00959). Kind of experiment: Inhibition of recombinant rat GluN1a/GluN2A co-expressed in HEK293 cells assessed as suppression of glutamate-induced current by patch-clamp method. The experiment is classed as cell-based.
Chain of Glutamate NMDA receptor; Grin1/Grin2a (Q00959 whole entry, other chains not shown): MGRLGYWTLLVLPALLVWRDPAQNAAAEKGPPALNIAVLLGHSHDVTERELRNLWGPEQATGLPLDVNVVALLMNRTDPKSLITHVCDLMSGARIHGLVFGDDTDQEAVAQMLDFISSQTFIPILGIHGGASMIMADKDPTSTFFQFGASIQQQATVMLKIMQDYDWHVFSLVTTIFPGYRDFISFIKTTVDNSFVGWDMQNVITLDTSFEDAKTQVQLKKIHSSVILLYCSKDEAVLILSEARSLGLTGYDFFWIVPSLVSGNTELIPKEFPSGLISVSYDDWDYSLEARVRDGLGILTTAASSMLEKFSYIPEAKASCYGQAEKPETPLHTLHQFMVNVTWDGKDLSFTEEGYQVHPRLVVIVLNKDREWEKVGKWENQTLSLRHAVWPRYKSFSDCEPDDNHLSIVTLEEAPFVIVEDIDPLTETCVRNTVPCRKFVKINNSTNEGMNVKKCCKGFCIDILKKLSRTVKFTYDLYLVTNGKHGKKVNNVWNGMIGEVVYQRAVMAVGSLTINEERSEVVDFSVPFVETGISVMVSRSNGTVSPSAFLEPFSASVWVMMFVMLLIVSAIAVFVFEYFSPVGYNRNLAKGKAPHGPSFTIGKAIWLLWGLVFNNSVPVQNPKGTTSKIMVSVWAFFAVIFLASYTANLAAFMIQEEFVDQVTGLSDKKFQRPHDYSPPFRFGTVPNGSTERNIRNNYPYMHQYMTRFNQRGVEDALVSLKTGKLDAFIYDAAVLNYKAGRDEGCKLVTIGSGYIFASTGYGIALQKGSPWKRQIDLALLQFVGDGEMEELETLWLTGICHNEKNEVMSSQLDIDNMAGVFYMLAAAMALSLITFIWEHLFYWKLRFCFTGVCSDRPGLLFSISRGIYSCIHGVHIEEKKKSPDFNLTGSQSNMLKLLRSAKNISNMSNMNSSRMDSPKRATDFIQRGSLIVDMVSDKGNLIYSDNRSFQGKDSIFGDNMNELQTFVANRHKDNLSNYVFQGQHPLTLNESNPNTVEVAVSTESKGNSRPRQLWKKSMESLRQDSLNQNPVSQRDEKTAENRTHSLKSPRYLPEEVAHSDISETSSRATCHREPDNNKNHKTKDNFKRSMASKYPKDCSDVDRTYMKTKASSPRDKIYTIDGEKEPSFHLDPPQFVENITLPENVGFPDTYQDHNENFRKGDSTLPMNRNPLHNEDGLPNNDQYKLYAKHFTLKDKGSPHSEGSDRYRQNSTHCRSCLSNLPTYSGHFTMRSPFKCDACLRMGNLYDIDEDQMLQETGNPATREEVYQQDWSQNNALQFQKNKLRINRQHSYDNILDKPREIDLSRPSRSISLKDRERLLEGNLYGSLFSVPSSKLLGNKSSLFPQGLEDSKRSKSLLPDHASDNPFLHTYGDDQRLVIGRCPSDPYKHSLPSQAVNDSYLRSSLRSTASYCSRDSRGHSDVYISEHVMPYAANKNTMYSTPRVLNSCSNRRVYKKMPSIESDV

In general, IC50 refers to the concentration at which inhibition is half-maximal. For `COC(=O)[C@@]1(C)CC[C@H]2[C@@H](CC[C@@H]3C[C@H](OC(=O)CCC(=O)O)CC[C@@]32C)[C@@H]1C`, the IC50 in experiment [1] came out at 63.4 µM.

For `COC[C@@]1(C)CC[C@H]2[C@@H](CC[C@@H]3C[C@H](OC(=O)CCC(=O)O)CC[C@@]32C)C1`, the IC50 in experiment [1] was found to be 33.3 µM.

Regarding `C[C@@H]1CC[C@H]2[C@@H](CC[C@@H]3C[C@H](OS(=O)(=O)O)CC[C@@]32C)C1.c1ccncc1`, the half-maximal inhibitory concentration (IC50) is 8.1 µM in experiment [2]; 13.7 µM in experiment [3]; 83 µM in experiment [4]; 3.1 µM in experiment [5]; 11.1 µM in experiment [6]; 15.6 µM in experiment [1]. For the same compound, the IC50 in experiment [7] amounted to 10.9 µM.

`COC(=O)[C@@]1(C)CC[C@H]2[C@@H](CC[C@@H]3C[C@H](OS(=O)(=O)O)CC[C@@]32C)[C@@H]1C.c1ccncc1`: the 50% inhibitory concentration (IC50) in experiment [1] was 74.6 µM.

For `COC[C@@]1(C)CC[C@H]2[C@@H](CC[C@@H]3C[C@H](OC(=O)CCC(=O)O)CC[C@@]32C)[C@@H]1C`, the IC50 in experiment [1] is 29.2 µM.

`COC(=O)[C@@]1(C)CC[C@H]2[C@@H](CC[C@@H]3C[C@H](OC(=O)CCC(=O)O)CC[C@@]32C)C1`: the IC50 in experiment [1] worked out at 87.6 µM.

Regarding `COC[C@@]1(C)CC[C@H]2[C@@H](CC[C@@H]3C[C@H](OS(=O)(=O)O)CC[C@@]32C)C1.c1ccncc1`, the IC50 in experiment [1] is 77 µM.
